US8940857B2, “Methods and compositions for enhancing delivery of double-stranded RNA or a double-stranded hybrid nucleic acid to regulate gene expression in mammalian cells” (Marina Biotech, Inc., priority 2004, dated 2015)
Oligonucleotides are written 5' to 3', each unit as a sugar letter and its base; * is a phosphorothioate linkage, no mark a phosphodiester; rarer units and linkages stand in square brackets, end groups in braces. Plain capitals give the bases only. No end group written: not given here. maleimide = maleimide group (amino-terminal modification); d = 2'-deoxy (DNA); r = 2'-OH (RNA)

Tested on: epithelial monolayers
Test: Peptide-mediated changes in trans-epithelial electrical resistance (TEER), permeation across epithelial monolayers
Format: cell-based
Settings: measured by peptide-mediated changes in TEER

| Substance | Effects (activity to enhance permeation across epithelial monolayers) |
| --- | --- |
| BrAc-GWTLNSAGYLLGKINLKALAALAKKILamide (SEQ ID NO: 3) [PN0064] | + |
| BrAc-KLALKLALKALKAALKLA-amide (SEQ ID NO: 4) (HELM PEPTIDE1{[O=C(CBr)[*:2]].K.L.A.L.K.L.A.L.K.A.L.K.A.A.L.K.L.A.[am]}$$$$V2.0; SMILES CC(C)C[C@H](NC(=O)[C@H](C)NC(=O)[C@H](CCCCN)NC(=O)[C@H](CC(C)C)NC(=O)[C@H](C)NC(=O)[C@H](CC(C)C)NC(=O)[C@H](CCCCN)NC(=O)[C@H](CC(C)C)NC(=O)[C@H](C)NC(=O)[C@H](CC(C)C)NC(=O)[C@H](CCCCN)NC(=O)CBr)C(=O)N[C@@H](CCCCN)C(=O)N[C@@H](C)C(=O)N[C@@H](C)C(=O)N[C@@H](CC(C)C)C(=O)N[C@@H](CCCCN)C(=O)N[C@@H](CC(C)C)C(=O)N[C@@H](C)C(N)=O) [PN0068] | + |
| GRKKRRQRRRPQ-amide (SEQ ID NO: 5) (GRKKRRQRRRPQ-NH2) [PN0069] | − |
| Maleimide-GLGSLLKKAGKKLKQPKSKRKV-amide (SEQ ID NO: 12) (maleimide-GLGSLLKKAGKKLKQPKSKRKV-NH2) [PN283] | + |
| NH2-AAVALLPAVLLALLAPRKKRRQRRRPPQ-amide (SEQ ID NO: 8) (H-AAVALLPAVLLALLAPRKKRRQRRRPPQ-NH2) [PN027] | + |
| NH2-KETWWETWWTEWSQPGRKKRRQRRRPPQ-amide (SEQ ID NO: 11) (H-KETWWETWWTEWSQPGRKKRRQRRRPPQ-NH2) [PN183] | + |
| NH2-LLETLLKPFQCRICMRNFSTRQARRNHRRRHRR-amide (SEQ ID NO: 9) (H-LLETLLKPFQCRICMRNFSTRQARRNHRRRHRR-NH2; cysteine pairing not given here) [PN202] | + |
| NH2-RRRQRRKRGGDIMGEWGNEIFGAIAGFLG-amide (SEQ ID NO: 10) (H-RRRQRRKRGGDIMGEWGNEIFGAIAGFLG-NH2; listed as Influenza virus) [PN250] | + |
| RKKRRQRRRPPQCAAVALLPAVLLALLAP-amide (SEQ ID NO: 1) (RKKRRQRRRPPQCAAVALLPAVLLALLAP-NH2) [PN0028] | + |
| RQIKIWFQNRRMKWKK-amide (SEQ ID NO: 2) (RQIKIWFQNRRMKWKK-NH2) [PN0058] | + |
| RRRRRRR (SEQ ID NO: 6) [PN0071] | − |

Tested on: beta-galactosidase mRNA
Test: Transfection of 9L/LacZ cells with siRNA and lipofectamine, beta-Gal/BCA assay (silencing of beta-galactosidase)
Format: cell-based
Settings: 9L/beta-gal cells, transfected with lipofectamine; control = cells transfected by lipofectamine alone; lower = greater efficacy
Experimental: Transfection of 9L/LacZ Cells:
• a) Take saturated 9L/LacZ culture from T75 flask, detach cell and dilute into 10 ml with complete medium (DMEM, 1× PS, 1× Na Pyruvate, 1× NEAA). • b) Further dilute the cell to 1:15, and seed 100 μl into each 96 well, which should give 50% confluence cell the next day for transfection. […] Flow Cytometry Measurement of FITC/FAM Conjugated siRNA • a) After transfection, incubate cell for at least 3 hours. • b) Wash with 200 μl PBS. • c) Detach cell with 15 μl TE, incubate at 37° C. • d) Re-suspend five wells with 30 μl FACS solution (PBS with 0.5% BSA, and 0.1% sodium Azide) • e) Combine all five wells into a tube. • f) Add PI 5 μl into each tube. • g) Analyze the cells with fluorescence activated cell sorting (FCAS) with BD FACscan instrument according to manufacture's instruction.
The transfection was performed with either regular siRNA or cholesterol-conjugated siRNA with lipofectamine (Invitrogen) on 9L/beta-gal cells. The siRNA was designed to specifically knock down beta-galactosidase mRNA and activities are expressed as percentage of beta-gal activities from control (transfected cells by lipofectamine alone). […]

| Substance | Activity (% of control): beta-galactosidase activity remaining after the transfection |
| --- | --- |
| AA: siRNA construct with no cholesterol conjugated to any of the ends of the sense or antisense RNA strands (SEQ ID NO: 14/15) (sense rCrUrArCrArCrArArArUrCrArGrCrGrArUrUrUdTdT; antisense rArArArUrCrGrCrUrGrArUrUrUrGrUrGrUrArGdTdT) | 23.12 % of control |
